Test results: paper PMC5148673 (European journal of medicinal chemistry, 2016)

How the values were obtained:
Type in all cases: cell-based, human
MCF-7 cells = test: Confocal microscopy intracellular distribution, MCF-7; conditions: MCF-7, 30 min, 4 h, 24 h incubation
SKBR-3 cells = test: Confocal microscopy intracellular distribution, SKBR-3; conditions: SKBR-3, 5 μM, 30 min, 37 °C
BT-474 cells = test: Flow cytometry cell cycle analysis

SMILES | DOX fluorescence in cells (MCF-7 cells) | DOX fluorescence distribution in cells (SKBR-3 cells) | effect on cell cycle inhibition (BT-474 cells)
COc1cccc2c1C(=O)c1c(O)c3c(c(O)c1C2=O)C[C@@](O)(C(=O)CO)C[C@@H]3O[C@H]1C[C@H](N)[C@H](O)[C@H](C)O1 [DOX, Doxorubicin] | fluorescence was seen in 30 min | strong DOX fluorescence in both the nucleus and cytoplasm | 
N=C(N)NCCC[C@H](N)C(=O)N[C@@H](CC(=O)N[C@@H](Cc1ccccc1)C(=O)O)c1cccc2ccccc12 [Compound 5, Arg-aminonaphthylpropionic acid-Phe] |  |  | no significant effect on cell cycle inhibition
